Test results published in US6962909B2, “Treatment of neovascularization disorders with squalimine” (Genaera Corporation, priority 1995, dated 2005).
≈ marks a conversion by molar mass, not a printed value.

Assays:
P. aerug = experiment: Antibiotic activity, MIC
S. aureus = experiment: Antibiotic activity, MIC; type: cell-based; details: Staphylococcus aureus
E. coli = experiment: Antibiotic activity, MIC; type: cell-based; details: Escherichia coli
C. albicans = experiment: Antibiotic activity, MIC; details: Candida albicans
[1] = test system: vitelline capillaries of 3- to 5-day chick embryo; experiment: Chick embryo vitelline capillary regression assay; type: in vivo; parameters: key to Vascular reactivity (capillary regression): + = Vascular reactivity; 0 = No vascular reactivity; +/− = Equivocal reactivity; details: 60 minutes
Protocol: Using the chick embryo vitelline capillaries assay, compounds were tested for their ability to induce capillary regression. Each compound was applied in 0.1 ml of 15% Ficol 400 and PBS onto the embryo, and vascular regression was assessed after 60 minutes.
The 3-day chick embryo consists of an embryonic disc from which numerous vessels emerge and return, forming a “figure 8”-shaped structure—the embryo in the center with vascular loops extending outward over both poles. […] Following a lag period of around 15 minutes, the constriction of continuity between capillary and secondary vessels, generally on the “venous” side, was observed. Continued pulsatile blood flow progressed, resulting in a “swelling” of the blind tube, followed by a pinching off of the remaining connection and formation of an enclosed vascular sac resembling a “blood island.” This process progressed until only the largest vessels remained intact.

[2] = test system: Stage 59-60 Xenopus tadpoles; experiment: Xenopus tadpole assay; type: in vivo, Xenopus laevis; details: 10 μg/ml in water
From the text: A newly developed assay employing tadpoles, preferably Xenopus laevis Stages 59-60, were employed to study the effect of a compound by monitoring capillary occlusion in the tadpole's tail. […] The compounds of the invention affect the shape, viability and integrity of the embryonic tissues while not affecting the adult tissues, providing a powerful, highly specific screen. For example, substances that destroy all of the animal's epithelium, both adult and embryonic, could be regarded as toxic.
In this assay, tadpoles are introduced into Petri dishes containing a solution of the test compound in distilled water, preferably about 100 ml. The preferred concentration of the test compound is from about 1 μg/ml to about 10 μg/ml. The volume of liquid is sufficient for the animal to swim freely and drink from the solution. Thus, the effect observed results from oral absorption and subsequent systemic distribution of the agent. If the volume of liquid is not sufficient to permit oral intake, the effects that are observed would result from absorption through the surface epithelium. Thus, this simple assay can identify if an compound has characteristics of oral availability.
After an amount of time, typically about 60 minutes, the occlusion of blood flow through capillaries in the tadpole's tail are observed under an inverted microscope at a magnification of roughly 100×.
The tadpole assay described above provides an advantageous way to determine the pharmacological targets of each steroid when introduced into a mammal, and to determine pharmacological categories into which synthetic compounds belong. In the assay, each of the steroids was dissolved in 100 ml of distilled water at a concentration of 10 μg/ml. Stage 59-60 Xenopus tadpoles were introduced and evaluated by light microscopy and gross observation 1 hour later.

[3] = test system: human microvascular cells; experiment: Endothelial cord formation assay; type: cell-based; also: key: + = Inhibition of angiogenesis; − = No inhibition of angiogenesis; T = Toxic; *= cell rounding @ 10 µg/ml
From the text: Endothelial cells have the capacity in vitro to form tubular aggregates resembling capillaries in various early stages of formation. This conversion occurs under relatively specific conditions, in which essential growth factors along with an effective substratum are provided. It has been shown that both the interaction of growth factors with the endothelial cell and its attachment to a substratum activate the NHE. The activation of this exchanger is believed to be required for subsequent morphologic transformation of the endothelial cell into a multicellular tubular structure.
To assess the effect of compounds on the cord-like structures formed by human microvascular cells when plated in the presence of VGEF (Vascular Endothelial Growth Factor) and basic fibroblast growth factor on a collagen matrix, a standard cord formation assay was used.

Structure (SMILES) | MIC (P. aerug) | MIC (S. aureus) | MIC (E. coli) | MIC (C. albicans) | Pharmacological category in tadpole assay (similarity to a reference steroid) [2] | other results
CC(C)C(O)CCC(C)[C@H]1CCC2C3C(CC[C@@]21C)[C@@]1(C)CC[C@H](NCCCNCCCCN(C)C)C[C@@H]1C[C@H]3O (stereo partly drawn) | 128 µg/mL (≈ 222 µM) | 8 to 16 µg/mL (≈ 13.9 to 27.8 µM) | 64 µg/mL (≈ 111 µM) | 64 µg/mL (≈ 111 µM) |  | 
CC(C)CCCC(C)[C@H]1CCC2C3CC[C@H]4C[C@@H](NCCCNCCCCN)CC[C@]4(C)C3CC[C@@]21C (stereo partly drawn) | 128 µg/mL (≈ 248 µM) | 8 µg/mL (≈ 15.5 µM) | 128 to 256 µg/mL (≈ 248 to 496 µM) | 256 µg/mL (≈ 496 µM) |  | 
CC(C)CCCC(C)[C@H]1CCC2C3CC[C@H]4C[C@H](NCCCNCCCCN)CC[C@]4(C)C3CC[C@@]21C (stereo partly drawn) | 128 µg/mL (≈ 248 µM) | 2 to 4 µg/mL (≈ 3.88 to 7.75 µM) | 128 µg/mL (≈ 248 µM) | 128 µg/mL (≈ 248 µM) |  | 
CC(CCC(=O)O)[C@H]1CCC2C3CC[C@H]4C[C@@H](NCCCNCCCCN)CC[C@]4(C)C3CC[C@@]21C (stereo partly drawn) | 32 µg/mL (≈ 63.5 µM) | 64 µg/mL (≈ 127 µM) | 32 to 64 µg/mL (≈ 63.5 to 127 µM) | 8 µg/mL (≈ 15.9 µM) |  | 
CC(CCC(=O)O)[C@H]1CCC2C3CC[C@H]4C[C@H](NCCCNCCCCN)CC[C@]4(C)C3CC[C@@]21C (stereo partly drawn) | 64 µg/mL (≈ 127 µM) | 128 µg/mL (≈ 254 µM) | 32 µg/mL (≈ 63.5 µM) | > 256 µg/mL |  | 
CC(C)CCCC(C)[C@H]1CCC2C3CC[C@H]4C[C@H](NCCCNCCCCNCCCN)CC[C@]4(C)C3CC[C@@]21C (stereo partly drawn) | 64 µg/mL (≈ 112 µM) | 8 µg/mL (≈ 14 µM) | 64 to 128 µg/mL (≈ 112 to 223 µM) | 16 to 32 µg/mL (≈ 27.9 to 55.8 µM) |  | 
CC(C)C(O)CCC(C)[C@H]1CCC2C3C(CC[C@@]21C)[C@@]1(C)CC[C@@H](NCCCNCCCCN)C[C@@H]1C[C@H]3O (stereo partly drawn) | 256 µg/mL (≈ 467 µM) | 16 to 32 µg/mL (≈ 29.2 to 58.4 µM) | 128 µg/mL (≈ 234 µM) | 64 µg/mL (≈ 117 µM) |  | 
CC(C)C(CCC(C)[C@H]1CCC2C3C(CC[C@@]21C)[C@@]1(C)CC[C@@H](NCCCNCCCCN)C[C@@H]1C[C@H]3O)OS(=O)(=O)O (stereo partly drawn) | 16 µg/mL (≈ 25.5 µM) | 2 to 4 µg/mL (≈ 3.18 to 6.37 µM) | 4 to 8 µg/mL (≈ 6.37 to 12.7 µM) | 16 µg/mL (≈ 25.5 µM) |  | 
COC(=O)CCC(C)[C@H]1CCC2C3C(CC[C@@]21C)[C@@]1(C)CC[C@H](NCCCNCCCCN)C[C@@H]1C[C@H]3O (stereo partly drawn) | 64 µg/mL (≈ 120 µM) | 4 to 8 µg/mL (≈ 7.49 to 15 µM) | 32 µg/mL (≈ 59.9 µM) | 32 µg/mL (≈ 59.9 µM) |  | 
CC(CCC(=O)O)[C@H]1CCC2C3C(CC[C@@]21C)[C@@]1(C)CC[C@H](NCCCNCCCCN)C[C@@H]1C[C@H]3O (stereo partly drawn) | 32 µg/mL (≈ 61.6 µM) | 32 µg/mL (≈ 61.6 µM) | 64 µg/mL (≈ 123 µM) | 128 µg/mL (≈ 246 µM) |  | 
C=C(C)C(=O)CCC(C)[C@H]1CCC2C3C(CC[C@@]21C)[C@@]1(C)CC[C@H](NCCCNCCCCN)C[C@@H]1C[C@H]3O (stereo partly drawn) | 128 µg/mL (≈ 235 µM) | 4 µg/mL (≈ 7.35 µM) | 32 µg/mL (≈ 58.8 µM) |  |  | 
CC(C)CCCC(C)[C@H]1CCC2C3C(CC[C@@]21C)[C@@]1(C)CC[C@@H](N)C[C@@H]1C[C@H]3O (stereo partly drawn) | > 256 µg/mL | 2 µg/mL (≈ 4.95 µM) | > 256 µg/mL |  |  | 
CC(C)CCCC(C)[C@H]1CCC2C3C(CC[C@@]21C)[C@@]1(C)CC[C@H](NCCCNCCCCN)C[C@@H]1C[C@H]3O (stereo partly drawn) [Compound 371] |  |  |  |  | effects like those produced by compound 1436 | Vascular reactivity (capillary regression) ([1]; 0.001 μg applied): 0; Vascular reactivity (capillary regression) ([1]; 0.01 μg applied): 0; Vascular reactivity (capillary regression) ([1]; 0.1 μg applied): 0; Vascular reactivity (capillary regression) ([1]; 1 μg applied): +/−; Vascular reactivity (capillary regression) ([1]; 10 μg applied): +
COC(=O)CCC(C)[C@H]1CCC2C3C(CC[C@@]21C)[C@@]1(C)CC[C@H](NCCN)C[C@H]1C[C@H]3O (stereo partly drawn) [Compound 409] |  |  |  |  | functionally similar to compound 1437 | Vascular reactivity (capillary regression) ([1]; 1 μg applied): 0
COC(=O)CCC(C)[C@H]1CCC2C3C(CC[C@@]21C)[C@@]1(C)CC[C@@H](NCCN)C[C@H]1C[C@H]3O (stereo partly drawn) [Compound 410] |  |  |  |  | functionally similar to compound 1437 | Vascular reactivity (capillary regression) ([1]; 0.001 μg applied): 0; Vascular reactivity (capillary regression) ([1]; 0.01 μg applied): +/−; Vascular reactivity (capillary regression) ([1]; 0.1 μg applied): +/−; Vascular reactivity (capillary regression) ([1]; 1 μg applied): +; Effect on endothelial cord formation ([3]; 0.1 μg/ml): −; Effect on endothelial cord formation ([3]; 1.0 μg/ml): +
CC(CCC(=O)O)[C@H]1CCC2C3C(CC[C@@]21C)[C@@]1(C)CC[C@@H](NCCCNCCCCNCCCN)C[C@H]1C[C@H]3O (stereo partly drawn) [Compound 412] |  |  |  |  | pharmacologic activity similar to that seen for FX 3 | Vascular reactivity (capillary regression) ([1]; 0.001 μg applied): 0; Vascular reactivity (capillary regression) ([1]; 0.01 μg applied): 0; Vascular reactivity (capillary regression) ([1]; 0.1 μg applied): 0; Vascular reactivity (capillary regression) ([1]; 1 μg applied): +; Effect on endothelial cord formation ([3]; 0.1 μg/ml): −; Effect on endothelial cord formation ([3]; 1.0 μg/ml): −; Effect on endothelial cord formation ([3]; 10.0 μg/ml): +
CC(CCC(=O)O)[C@H]1CCC2C3C(CC[C@@]21C)[C@@]1(C)CC[C@H](NCCCNCCCCNCCCN)C[C@H]1C[C@H]3O (stereo partly drawn) [Compound 413] |  |  |  |  | effects like those produced by compound 1436 | Vascular reactivity (capillary regression) ([1]; 1 μg applied): 0; Effect on endothelial cord formation ([3]; 0.1 μg/ml): −; Effect on endothelial cord formation ([3]; 1.0 μg/ml): −; Effect on endothelial cord formation ([3]; 10.0 μg/ml): +
CC(CCC(=O)O)[C@H]1CCC2C3C(CC[C@@]21C)[C@@]1(C)CC[C@@H](NCCN)C[C@H]1C[C@H]3O (stereo partly drawn) [Compound 414] |  |  |  |  | pharmacologic activity similar to Fraction 1 | Vascular reactivity (capillary regression) ([1]; 1 μg applied): 0
COC(=O)CCC(C)[C@H]1CCC2C3C[C@@H](O)[C@H]4C[C@@H](NCCN)CC[C@]4(C)C3CC[C@@]21C (stereo partly drawn) [Compound 432] |  |  |  |  | functionally similar to compound 1437 | Effect on endothelial cord formation ([3]; 1.0 μg/ml): −; Effect on endothelial cord formation ([3]; 10.0 μg/ml): −
COC(=O)CCC(C)[C@H]1CCC2C3CC[C@H]4C[C@@H](NCCCNCCCCNCCCN)CC[C@]4(C)C3CC[C@@]21C (stereo partly drawn) [Compound 459] |  |  |  |  | pharmacologic activity similar to that seen for FX 3 | 
COC(=O)CCC(C)[C@H]1CCC2C3C[C@@H](O)[C@H]4C[C@H](NCCCNCCCCNCCCN)CC[C@]4(C)C3CC[C@@]21C (stereo partly drawn) [Compound 465] |  |  |  |  | pharmacologic activity similar to that seen for FX 3 | 
COC(=O)CCC(C)[C@H]1CCC2C3C[C@@H](O)[C@H]4C[C@@H](NCCCNCCCCNCCCN)CC[C@]4(C)C3CC[C@@]21C (stereo partly drawn) [Compound 466] |  |  |  |  | pharmacologic activity similar to that seen for FX 3 | 
CC(C)CCCC(C)[C@H]1CCC2C3C(CC[C@@]21C)[C@@]1(C)CC[C@@H](N)C[C@@H]1C[C@H]3O (stereo partly drawn) [Compound 1363] |  |  |  |  | pharmacologic activity similar to Fraction 1 | 
CC(CCC(=O)C(C)(C)OS(=O)(=O)O)[C@H]1CCC2C3C(CC[C@@]21C)[C@@]1(C)CC[C@H](NCCCNCCCCN)C[C@@H]1C[C@H]3O (stereo partly drawn) [FX1A] |  |  |  |  |  | Pharmacological response observed in tadpole ([2]; about 1 hour): fecal elimination is dramatically increased
